The results in this text go back to US11613552B2, “Pharmaceutical agents, compositions, and methods relating thereto” (Alltech, Inc., priority 2017, dated 2023).

The subject of series [1] is HepG2 cells. In words: Glucose production assay in HepG2 cells. It counts as cell-based, human. The protocol: (§1) Equal numbers of Human HepG2 or rat H4IIE cells (1-1.5×10^5 cells/well) were seeded on 96 well plates in 10% FBS-containing media for 24 hr. Cells were then washed twice with PBS, and treated with various concentrations of compounds, metformin or insulin in 100 μl of glucose production media (glucose-free, phenol red-free DMEM media supplemented with 20 mM sodium lactate, 2 mM sodium pyruvate and 5 mM HEPES) at 37° C. for 24 hr (H4IIE cells only) or 48 hr (HepG2 cell only). Cells were also incubated with 0.24% DMSO (the maximal volume of DMSO solvent used in the experiments).
(§2) After the above treatments, 50 μl of culture media were collected, and subjected to glucose analysis using Molecular Probes Amplex Red glucose assay kit (Cat #A22189) according to the manufacturer's protocol. Cell numbers or viability in the culture plate after the above compound treatments were determined using Promega's CellTiter96® AQueous One Solution Cell Proliferation Assay kits, according to the manufacturer's protocol and instructions. In brief, after removing 50 μl of culture media for glucose assay, cells were incubated with AQueous One solution (25 μl stock solution and 50 μl prewarmed PBS/per well) at 37° C. for 1 hour, and the absorbance of OD490 nm in each sample was determined by the Bio-Tek microplate reader. Cell viability in culture wells were determined by the subtraction of OD490 nm in cultured cells with the OD490 nm in plain culture media (without seeding of cells). Glucose production in the culture cells were obtained by normalizing the glucose concentration in culture media by cell viability in each well. At least 3 samples per each treatment were examined for the above analysis. Data are presented as Mean±SEM of those samples. Experiments were repeated at least twice.
(§3) The half maximal inhibitory concentration (IC50 values) of Compound #43 or metformin for the inhibition of glucose production were determined using the ED50 Plus v1.0 online software.

Series [2] concerns Lepr^db/db mice. In words: Chronic treatment: fasting blood glucose and HbA1c in Lepr^db/db mice. It counts as in vivo, mouse. Particulars: for effect on HbA1c levels: 25 μg selenium/kg ip daily for 90 days from 41 days of age (FIG. 5). The protocol:
(§4) Male Lepr^db/db mice at 38 days of age were intraperitoneally (ip) injected daily with physiological saline ([…]) containing 0.2% DMSO, Compound #C, Compound #50, Compound #68, and/or Compound #43 (25 μg selenium or sulfur equivalents of each compound per kilogram body weight, diluted in sterile physiological saline) for periods ranging from 43-90 days. Body weights of the above treated mice were recorded daily using a balance and any visible abnormal animal gross morphology and walking behavior were monitored daily. After the treatments, animals were fasted overnight and then subjected to blood glucose or HbA1c assays, glucose tolerance tests or tissue collections.
(§5) For comparative studies of any potential anti-diabetic effects of Compounds #43, #69 and #70, male Lepr^db/db mice at 41 days of age were intraperitoneally (ip) injected daily with physiological saline ([…]) containing 0.2% DMSO, Compound #43, Compound #69, or Compound #70 (25 μg selenium of each compound per kilogram body weight, diluted in sterile physiological saline). After the treatments for 43 days, animals were fasted overnight and then subjected to blood glucose and glucose tolerance tests. After daily treatments of these compounds for 90 days, sera from these animals were collected and then subjected to blood HbA1c assays.
After treatment with physiological saline or compounds or after the injection of a bolus of glucose, a small drop of blood from each mouse was collected by snipping the mouse tail tip. Blood glucose levels were determined using a Glucometer with a maximum capability for glucose measurement of 600 mg/dL.
After saline or compound treatments, a small drop of blood from the mouse tail was collected in an EDTA-coated eppendorf tube (to prevent blood coagulation) (Fisher Scientific), and then subjected to a HbA1c assay using the Crystal Chem's or Kamiya's mouse glycated hemoglobin A1c ELISA kit, according to the manufacturer's protocol. Also after the final treatments, mouse serum was collected and subjected to HbA1c assay using the Kamiya Biomeidcal Company's mouse HbA1c kit, according to the manufacturer's protocol.

The nature of series [3]: Body weight, gross morphology and walking behavior of treated Lepr^db/db mice. It counts as in vivo. The method, then:
Body weights of the above treated mice were recorded daily using a balance and any visible abnormal animal gross morphology and walking behavior were monitored daily. After the treatments, animals were fasted overnight and then subjected to blood glucose or HbA1c assays, glucose tolerance tests or tissue collections.
After the treatments for 43 days, animals were fasted overnight and then subjected to blood glucose and glucose tolerance tests. After daily treatments of these compounds for 90 days, sera from these animals were collected and then subjected to blood HbA1c assays.

For series [4], the system named is Lepr^db/db mice. Briefly: Glucose tolerance test in Lepr^db/db mice. It is filed as in vivo, mouse. The protocol: as §4, §5
Glucose tolerance tests were performed as described previously (Li et al, Int J Biol Sci 2008; 4:29-36). Briefly, overnight-fasted Lepr^db/db mice after saline or compound treatments were injected intraperitoneally with 2 grams/kg body weight of 20% D-glucose. Blood glucose levels at time 0 (immediately before the injection of glucose), 0.25, 0.5, 1 and 2 hours after injection of glucose were determined using a glucometer with a maximum glucose measurement capacity of 600 mg/dL. Because of this, blood glucose levels over 600 mg/dL were counted as 600 mg/dL in the data analysis.

Series [5] deals with T1, native insulin receptor (Insr) (Rattus norvegicus, UniProt P15127).
T1 construct: native insulin receptor proteins, containing both alpha and beta subunits; purchased Sigma I9266; host or cells: purified from rat liver tissue
T1 sequence (P15127 764-1383 limits assumed): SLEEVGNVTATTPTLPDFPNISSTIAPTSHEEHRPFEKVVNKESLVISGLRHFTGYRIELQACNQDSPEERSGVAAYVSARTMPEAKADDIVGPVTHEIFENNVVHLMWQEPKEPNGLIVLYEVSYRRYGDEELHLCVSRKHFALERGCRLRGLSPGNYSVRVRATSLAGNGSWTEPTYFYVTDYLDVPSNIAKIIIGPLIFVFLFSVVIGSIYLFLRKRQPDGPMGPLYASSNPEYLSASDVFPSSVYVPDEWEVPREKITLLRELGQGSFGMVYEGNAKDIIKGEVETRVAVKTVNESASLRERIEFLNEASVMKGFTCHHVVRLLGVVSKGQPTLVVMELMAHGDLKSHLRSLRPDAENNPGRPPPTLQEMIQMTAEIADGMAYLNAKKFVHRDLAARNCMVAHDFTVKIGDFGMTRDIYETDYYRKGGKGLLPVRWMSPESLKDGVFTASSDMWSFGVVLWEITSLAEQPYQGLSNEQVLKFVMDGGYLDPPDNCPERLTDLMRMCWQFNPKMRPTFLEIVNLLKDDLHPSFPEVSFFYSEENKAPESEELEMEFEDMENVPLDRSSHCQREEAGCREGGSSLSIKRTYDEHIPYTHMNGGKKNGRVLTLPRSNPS
T1 sequence (P15127 27-759 partner limits assumed): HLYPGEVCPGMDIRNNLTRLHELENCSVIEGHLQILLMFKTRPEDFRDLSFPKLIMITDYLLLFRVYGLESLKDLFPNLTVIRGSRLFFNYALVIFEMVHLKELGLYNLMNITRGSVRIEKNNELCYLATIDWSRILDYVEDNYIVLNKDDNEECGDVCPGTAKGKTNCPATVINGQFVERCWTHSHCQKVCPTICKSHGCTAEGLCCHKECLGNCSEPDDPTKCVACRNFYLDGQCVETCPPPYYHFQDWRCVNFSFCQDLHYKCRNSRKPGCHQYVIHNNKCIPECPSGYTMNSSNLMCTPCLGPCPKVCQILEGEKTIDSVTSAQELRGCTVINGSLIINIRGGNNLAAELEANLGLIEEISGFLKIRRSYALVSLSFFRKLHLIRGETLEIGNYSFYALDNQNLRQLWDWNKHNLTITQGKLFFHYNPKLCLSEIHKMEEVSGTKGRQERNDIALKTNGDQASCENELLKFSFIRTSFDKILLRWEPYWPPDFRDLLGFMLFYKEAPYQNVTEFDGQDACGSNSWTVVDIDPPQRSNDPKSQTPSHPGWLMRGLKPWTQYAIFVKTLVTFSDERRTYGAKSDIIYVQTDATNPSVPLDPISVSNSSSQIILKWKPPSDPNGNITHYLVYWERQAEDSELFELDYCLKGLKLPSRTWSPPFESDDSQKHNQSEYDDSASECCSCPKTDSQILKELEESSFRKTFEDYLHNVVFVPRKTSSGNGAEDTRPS
Briefly: In vitro cell-free phosphorylation of native insulin receptor. It is filed as biochemical. The note with it: 3.8 μM, cell-free (FIG. 27). The protocol:
In vitro phosphorylation of Insr was performed according to Sigma's protocol with the following modifications. In brief, 10 μl of native insulin receptor solution containing 0.8 μl of original native INSR stock solution (Sigma, Catalog #I9266; diluted in enzyme dilution buffer containing 50 mM HEPES, pH 7.6, 150 mM NaCl and 0.1% Triton X-100) were incubated with equal volume of solutions containing insulin (Sigma), DMSO (Compound #43 solvent), Compound #43 or Compound #68 (diluted in 50 mM HEPES, pH 7.6 and 100 μg/ml bovine serum albumin) on ice for 30 min. Then 20 μl of 2× kinase buffer containing 0.2 mM ATP, 50 mM HEPES, pH 7.6, 50 mM MgCl2 and 4 mM MnCl2 were added to the above reactions, mixed and incubated on ice for 45 minutes.
Five microliters of the above reactions were immediately subjected to Western blot analysis using specific antibodies against phosphorylated tyrosine residues at 1146, 1150 and 1151 of Insrβ proteins (Cell Signaling Inc.). Protein band density was determined using the NIH Image J software.

In series [6] the test system is H4IIE cells. In words: Glucose production assay in H4IIE cells. It is filed as cell-based, rat. The method, then:
as §1, §2, §3

Series [7] deals with HepG2 cells. Briefly: Cell viability (CellTiter96 AQueous One) in HepG2 cells. It is filed as cell-based, human. The note with it: higher doses 0.5-4 mM. The protocol:
as §2

In series [8] the test system is H4IIE cells. In words: Cell viability (CellTiter96 AQueous One) in H4IIE cells. It counts as cell-based, rat. The note with it: tested doses. The protocol:
as §2

The mark [9] stands for this setting: tested doses, serum-free glucose production media, 48 hr (FIG. 1).
Setting [10] is: 25 μg selenium/kg ip daily for 43 days from 41 days of age (FIG. 5).
The mark [11] stands for this setting: 25 μg selenium/kg ip daily, 90 days, from 41 days of age.

For the compound `Nc1ncnc2c1ncn2[C@@H]1O[C@H](CO)[C@@H](O)[C@H]1O` [Compound #57, Adenosine, reference compound], in the series on HepG2 cells [1] (setting [9]), the “effect on glucose production in HepG2 cells” value (“effect … in HepG2 cells” below) is “did not inhibit glucose production”.

Take `C[C@H]1O[C@@H](n2cnc3c(N)ncnc32)C[C@@H]1O` [Compound #59, 2′,5′-Dideoxyadenosine, reference compound]: in the series with HepG2 cells [1] (setting [9]), the “effect … in HepG2 cells” value is on record as “did not inhibit glucose production”.

On to `Nc1ncnc2c1ncn2C1CCCO1` (stereo not drawn) [Compound #61, 9-(tetrahydrofuran-2-yl)-9h-purin-6-amine (SQ 22,536), reference compound], for which the “effect … in HepG2 cells” value in the series with HepG2 cells [1] (setting [9]) is listed as “did not inhibit glucose production”.

As to `Nc1ncnc2[nH]cnc12` [Compound #62, Adenine, reference compound], the “effect … in HepG2 cells” value with HepG2 cells [1] (setting [9]) is given as “did not inhibit glucose production”.

For `C[S+](CC[C@H](N)C(=O)O)C[C@H]1O[C@@H](n2cnc3c(N)ncnc32)C(O)C1O.[I-]` (stereo partly drawn) [Compound #64, S-(5′-Adenosyl)-L-methionine iodide (SAM), reference compound], the “effect … in HepG2 cells” value in the series with HepG2 cells [1] (setting [9]) is reported as “minimal effects in lowering glucose production”.

On to `CSC[C@H]1O[C@@H](n2cnc3c(N)ncnc32)[C@H](OC(C)=O)[C@@H]1OC(C)=O` [Compound #68, Adenosine, 5′-S-methyl-5′-thio-, 2′,3′-diacetate], for which the “effect … in HepG2 cells” value in the series with HepG2 cells [1] (setting [9]) is on record as “minimal effects in lowering glucose production”. In addition, in the series on Lepr^db/db mice [2] (25 μg selenium or sulfur/kg ip daily, 3 months (FIG. 4)), the “effect on fasting blood glucose levels” value is on record as “did not significantly lower blood glucose levels”. Also, in the series with Lepr^db/db mice [2] (25 μg sulfur/kg ip daily, 3 months (FIG. 4)), the “effect on blood HbA1c levels” value is given as “did not affect blood HbA1c levels”. The “overt toxic effects (morphology, walking behavior, body weight)” value in series [3] (25 μg selenium or sulfur/kg ip daily, 3 months) is “no overt toxic effects”. Moreover, in the series on Lepr^db/db mice [4] (25 μg selenium or sulfur/kg ip daily 2 months (FIG. 8B)), the “glucose tolerance (overall)” value is “little or no effects to improve glucose tolerance”. The “blood glucose level at 2 hr after glucose injection” value (“blood glucose level at 2 hr” below) in the series on Lepr^db/db mice [4] (FIG. 8B, 2 months treatment) is on record as “no obvious decrease of blood glucose levels”. Besides, the “activation of Insr” value in series [5] is recorded as “less effective at the tested dose than Compound #43”.

`CCCC(=O)OC1C(OC(=O)CCC)[C@@H](C[Se]C)O[C@H]1n1cnc2c(N)ncnc21` (stereo partly drawn) [Compound #70, Adenosine, 5′-Se-methyl-5′-selino-, 2′,3′-dibutanoate]: in the series with HepG2 cells [1] (setting [9]), the “effect … in HepG2 cells” value is given as “inhibited glucose production”. Further, in the series on Lepr^db/db mice [2] (setting [10]), the “effect on fasting blood glucose levels” value is “decrease of fasting blood glucose levels in Lepr^db/db mice but less significant than Compound #43”. Also, in the series with Lepr^db/db mice [2] (25 μg selenium/kg ip daily for 90 days (FIG. 5), later revised), the “decrease of HbA1c levels (initial assessments)” value is recorded as “about 50%”. Further, in the series with Lepr^db/db mice [2], the “effect on HbA1c levels” value is “neither Compound #69 nor Compound #70 had any significant effect”. Moreover, in series [3] (setting [11]), the “overt toxic effects (morphology, walking behavior, body weight)” value is “no overt toxic effects”. In addition, the “blood glucose level at 2 hr” value with Lepr^db/db mice [4] (FIG. 8C, 43 days treatment) is “slight but non-significant decrease in blood glucose levels”.

In the case of `CN(C)C(=N)N=C(N)N` [metformin, reference compound], the “effect … in HepG2 cells” value with HepG2 cells [1] (500 μM) is given as “did not inhibit glucose production”. Also, the “inhibitory activity on glucose production in H4IIE cells” value with H4IIE cells [6] (36.25 μM) is listed as “little or no inhibitory activity”. Also, in the series on H4IIE cells [6] (Rattus norvegicus, H4IIE, serum-free, 24 hr, read-out: IC50 (inhibition of glucose production)), the IC50 was determined as 275 µM. Besides, the “effect on glucose production in H4IIE cells” value in the series on H4IIE cells [6] (serum-free, 24 hr (FIG. 2)) is recorded as “dose-dependent decrease in glucose production”. Besides, in the series on HepG2 cells [7], the cell toxicity entry was “showed cell toxicity”. Also, the “toxic effect on cell viability” value with H4IIE cells [8] is “No toxic effect”.

Regarding “Adenosine, 5′-Se-methyl-5′-selino-, 2′,3′-dipropionate [Compound #69]”, the “effect … in HepG2 cells” value in the series with HepG2 cells [1] (setting [9]) was “inhibited glucose production”. Further, in the series with Lepr^db/db mice [2] (setting [10]), the “effect on fasting blood glucose levels” value is listed as “slight increase in fasting blood glucose levels”. Besides, in the series with Lepr^db/db mice [2], the “effect on HbA1c levels” value was “did not result in a significant decrease of HbA1c levels”. In series [3] (setting [11]), the “overt toxic effects (morphology, walking behavior, body weight)” value is on record as “no overt toxic effects”. For the same compound, the “blood glucose level at 2 hr” value with Lepr^db/db mice [4] (FIG. 8C, 43 days treatment) is on record as “slight but non-significant decrease in glucose levels”.

For “Adenosine, F—Se-methyl-F-seleno-, 2′-morpholinocarbamate and Adenosine, 5′-Se-methyl-F-seleno-, 3′-morpholinocarbamate [Compound #53]”, the “effect … in HepG2 cells” value with HepG2 cells [1] (setting [9]) is listed as “inhibited glucose production”.

As a reminder, the IC50 is the concentration that gives 50% inhibition.
